Structures can show the parent of a compound that is named as a salt. Values belong to the compound of their own block, whether it stands above or below them.
Experiments:
Format in all cases: cell-based
[1] = target: T1, human serotonin transporter (Homo sapiens, UniProt P31645); assay: Inhibitory action on human serotonin transporter ([3H]-5-hydroxytryptamine uptake in CHO cells); details: CHO, compound 1 μM; relative to inhibitory activity of 10 μM Paroxetine as 100%; read-out: inhibitory rate (%)
T1 construct: expressed in transfected cells
T1 sequence (P31645 whole entry): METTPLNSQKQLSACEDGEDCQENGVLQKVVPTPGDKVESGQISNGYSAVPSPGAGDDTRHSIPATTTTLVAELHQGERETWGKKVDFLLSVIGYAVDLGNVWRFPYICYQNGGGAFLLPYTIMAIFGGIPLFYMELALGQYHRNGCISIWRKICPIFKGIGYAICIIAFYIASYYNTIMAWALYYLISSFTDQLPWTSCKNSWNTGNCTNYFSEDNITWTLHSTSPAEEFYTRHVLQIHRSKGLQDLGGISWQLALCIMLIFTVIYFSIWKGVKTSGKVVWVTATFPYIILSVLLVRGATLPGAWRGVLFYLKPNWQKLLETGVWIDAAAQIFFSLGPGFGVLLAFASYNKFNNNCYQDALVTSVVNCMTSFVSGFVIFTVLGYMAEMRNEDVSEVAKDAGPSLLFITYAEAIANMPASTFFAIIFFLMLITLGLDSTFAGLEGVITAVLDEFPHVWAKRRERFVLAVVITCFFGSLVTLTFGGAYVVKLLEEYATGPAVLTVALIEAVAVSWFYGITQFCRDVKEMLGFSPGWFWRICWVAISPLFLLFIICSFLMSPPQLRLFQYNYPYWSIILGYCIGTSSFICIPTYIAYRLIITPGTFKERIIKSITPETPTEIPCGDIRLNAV
Text: (§1) Human serotonin transporter cDNA was amplified from human brain cDNA library by PCR, and inserted into pCRII-TOPO vector (manufactured by Invitrogen). The base sequence was confirmed and modified, and subcloned to pcDNA3.1 vector (manufactured by Invitrogen), whereby a human serotonin transporter expression plasmid was constructed. Human norepinephrine transporter cDNA was purchased from Invitrogen, and the base sequence was confirm and modified, and subcloned to pcDNA3.1 vector, whereby a human norepinephrine transporter expression plasmid was constructed.
(§2) The monoamine transporter expression plasmids thus prepared were introduced into CHO-K1 cells using FuGENE6 (manufactured by Roche Diagnostics) and according to the attached protocol, whereby each expressing cell was established.
CHO cells stably expressing a human serotonin transporter were used for the measurement of human serotonin transporter inhibitory activity. Unless particularly indicated, these CHO cells were cultured in a Ham/F12 medium (Invitrogen) containing 10% fetal bovine serum (MOREGATE).
(§3) The cultured cells that reached almost confluent were rinsed with PBS (Invitrogen), detached with Trypsin/EDTA (Invitrogen), and collected by a centrifugal operation. The obtained cells were counted, and diluted to 3×10^5 cells per 1 mL medium, the mixture was dispensed to a 96 well white plate (Corning) at 100 μL per well, and cultured overnight in a CO2 incubator.
(§4) Then, an assay buffer (126 mM NaCl, 4.95 mM KCl, 1.26 mM KH2PO4, 1.26 mM MgSO4, 10 mM HEPES, 2.32 mM CaCl2, 5.52 mM Glucose, 0.5% BSA) was prepared, the medium in the cell plate was removed and the assay buffer was added by 80 μL. A test compound was diluted with the assay buffer to a 10-fold concentration of the final concentration, and the mixture was dispensed to a 96 well polypropylene plate. The diluted test compound was dispensed to the cell plate by 10 μL. [3H]-5-Hydroxytryptamine (GE Healthcare) was diluted with the assay buffer to 200 nM, and the mixture was dispensed to the cell plate by 10 μL. At 20 min from [3H]-5-hydroxytryptamine addition, the assay buffer was removed by suction, and the plate was washed twice with 150 μL of PBS (Invitrogen) per well. Microscinti20 (PerkinElmer) was dispensed to each well by 100 μL, and the mixture was stirred for about 30 min. The radioactivity was measured by TopCount (PerkinElmer).
The inhibitory activity of each compound (10 μM) was calculated as a relative activity value based on the inhibitory activity of 10 μM Paroxetine (serotonin transporter inhibitor) as 100%.
In addition, the inhibitory activity of each compound (1 μM) was calculated as a relative activity value based on the inhibitory activity of 10 μM Paroxetine (serotonin transporter inhibitor) as 100%.

[2] = target: T2, human dopamine transporter (Homo sapiens, UniProt Q01959); assay: Inhibitory action on human dopamine transporter ([3H]-dopamine uptake in CHO cells); details: CHO, compound 1 μM; relative to inhibitory activity of 100 μM Nomifensine as 100%; read-out: inhibitory rate (%)
T2 construct: expressed in transfected cells
T2 sequence (Q01959 whole entry): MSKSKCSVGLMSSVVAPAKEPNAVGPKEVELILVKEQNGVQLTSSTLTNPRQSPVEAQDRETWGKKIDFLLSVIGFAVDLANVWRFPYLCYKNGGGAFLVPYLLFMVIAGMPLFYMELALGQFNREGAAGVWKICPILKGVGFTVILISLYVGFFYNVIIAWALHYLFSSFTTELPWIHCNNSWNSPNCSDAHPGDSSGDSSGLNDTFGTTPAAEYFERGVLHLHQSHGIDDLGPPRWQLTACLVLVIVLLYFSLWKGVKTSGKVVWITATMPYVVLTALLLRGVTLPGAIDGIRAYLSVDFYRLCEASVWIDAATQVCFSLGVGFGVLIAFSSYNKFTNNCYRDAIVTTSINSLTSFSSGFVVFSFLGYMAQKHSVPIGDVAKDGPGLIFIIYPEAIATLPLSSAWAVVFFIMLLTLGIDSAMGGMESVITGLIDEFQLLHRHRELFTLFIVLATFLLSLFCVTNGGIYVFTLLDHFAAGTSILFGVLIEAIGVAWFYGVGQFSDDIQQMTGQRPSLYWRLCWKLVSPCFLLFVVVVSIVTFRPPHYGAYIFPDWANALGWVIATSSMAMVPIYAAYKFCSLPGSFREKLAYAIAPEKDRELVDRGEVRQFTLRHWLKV
Text: SRα promoter contained in pTB1411 described in JP-A-H5-076385 was cleaved with restriction enzyme […](manufactured by TAKARA BIO INC.), blunt-ended, further cleaved with restriction enzyme EcoRI (manufactured by TAKARA BIO INC.), and fragmented. On the other hand, pCI vector was cleaved with restriction enzyme BglII (manufactured by TAKARA BIO INC.), blunt-ended with T4 DNA polymerase, and further cleaved with restriction enzyme EcoRI (manufactured by TAKARA BIO INC.). Into this site was inserted an SRa promoter fragment to give pCI-SRa. Then, pCI-SRa was cleaved with restriction enzyme ClaI (manufactured by TAKARA BIO INC.) and blunt-ended. Into this site was inserted a 1.63 Kb fragment obtained by cleaving pGFP-C1 (manufactured by TOYOBO) with restriction enzyme Bsu36I (manufactured by Daiichi Pure Chemicals Co., Ltd.) followed by blunt-ending, whereby pMSRα neo was prepared. Human dopamine transporter cDNA was amplified from human substantia nigra cDNA library by PCR, and inserted into the pCRII vector (manufactured by Invitrogen). The base sequence was confirmed, modified and subcloned to pMSRα neo, whereby a human dopamine transporter expression plasmid was constructed.
as §2
CHO cells stably expressing human dopamine transporter were used for the measurement of human dopamine transporter inhibitory activity. Unless otherwise indicated, these CHO cells were cultured in Ham/F12 medium (Invitrogen) containing 10% fetal bovine serum (MOREGATE).
as §3, with “One day before the assay, the cultured” for “The cultured”, “medium, and” for “medium,”
as §4, with “On the day of the test, an” for “Then, an”, “μL. [3H]-Dopamine” for “μL. [3H]-5-Hydroxytryptamine”, “nM, cold dopamine was diluted to 10 μM,” for “nM,”, “At 60” for “At 20”, “from [3H]-dopamine” for “from [3H]-5-hydroxytryptamine”
The inhibitory activity of each compound (10 μM) was calculated as a relative activity value based on the inhibitory activity of 100 μM Nomifensine (dopamine transporter inhibitor) as 100%.
The inhibitory activity of each compound (1 μM) was m calculated as a relative activity value based on the inhibitory activity of 100 μM Nomifensine (dopamine transporter inhibitor) as 100%.

[3] = target: T3, human norepinephrine transporter (Homo sapiens, UniProt P23975); assay: Inhibitory action on human norepinephrine transporter ([3H]-norepinephrine uptake in CHO cells); details: CHO, compound 1 μM; relative to inhibitory activity of 10 μM DMI as 100%; read-out: inhibitory rate (%)
T3 construct: expressed in transfected cells
T3 sequence (P23975 whole entry): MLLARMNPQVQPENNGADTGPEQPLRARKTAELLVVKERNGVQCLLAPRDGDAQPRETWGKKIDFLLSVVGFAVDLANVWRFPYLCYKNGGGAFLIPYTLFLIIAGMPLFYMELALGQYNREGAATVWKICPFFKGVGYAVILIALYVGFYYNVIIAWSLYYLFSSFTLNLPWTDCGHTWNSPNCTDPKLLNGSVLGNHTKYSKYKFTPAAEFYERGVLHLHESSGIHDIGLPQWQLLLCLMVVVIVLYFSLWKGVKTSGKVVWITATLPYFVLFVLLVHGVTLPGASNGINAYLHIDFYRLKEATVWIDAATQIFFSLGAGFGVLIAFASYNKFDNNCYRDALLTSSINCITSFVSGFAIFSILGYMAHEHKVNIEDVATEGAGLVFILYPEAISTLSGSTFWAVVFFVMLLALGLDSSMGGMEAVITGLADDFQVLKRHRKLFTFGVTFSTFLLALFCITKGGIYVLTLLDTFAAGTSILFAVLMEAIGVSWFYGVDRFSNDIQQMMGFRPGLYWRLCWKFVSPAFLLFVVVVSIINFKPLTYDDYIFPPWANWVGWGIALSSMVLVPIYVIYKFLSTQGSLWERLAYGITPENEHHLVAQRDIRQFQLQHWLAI
Text: as §1, §2
CHO cells stably expressing human norepinephrine transporter were used for the measurement of human norepinephrine transporter inhibitory activity. Unless otherwise indicated, these CHO cells were cultured in Ham/F12 medium (Invitrogen) containing 10% fetal bovine serum (MOREGATE).
as §3, with “medium, and” for “medium,”
as §4, with “μL. [3H]-Norepinephrine” for “μL. [3H]-5-Hydroxytryptamine”, “At 45” for “At 20”, “from [3H]-norepinephrine” for “from [3H]-5-hydroxytryptamine”
The inhibitory activity of each compound (10 μM) was calculated as a relative activity value based on the inhibitory activity of 10 μM DMI (norepinephrine transporter inhibitor) as 100%.
The inhibitory activity of each compound (1 μM) was calculated as a relative activity value based on the inhibitory activity of 10 μM DMI (norepinephrine transporter inhibitor) as 100%.

inhibition at 1 µM [1]: 59%
inhibition at 1 µM [2]: 25%
inhibition at 1 µM [3]: 100%
Compound: O[C@H]1CNCCO[C@@H]1c1ccc(Cl)c(Cl)c1 (racemic) [Example 230, (6RS,7SR)-7-(3,4-dichlorophenyl)-1,4-oxazepan-6-ol monohydrochloride]

inhibition at 1 µM [1]: 87%
inhibition at 1 µM [2]: 13%
inhibition at 1 µM [3]: 91%
Compound: OC[C@@H]1CNCCO[C@@H]1c1ccc(F)c(Cl)c1 (racemic) [Example 278, [(6RS,7RS)-7-(3-chloro-4-fluorophenyl)-1,4-oxazepan-6-yl]methanol monohydrochloride]

inhibition at 1 µM [1]: 53%
inhibition at 1 µM [2]: 58%
inhibition at 1 µM [3]: 100%
Compound: COC[C@@H]1OCCNC[C@@H]1c1ccc(Cl)c(Cl)c1 (racemic) [Example 449, (6RS,7SR)-6-(3,4-dichlorophenyl)-7-(methoxymethyl)-1,4-oxazepane monohydrochloride]

inhibition at 1 µM [1]: 27%
inhibition at 1 µM [2]: 47%
inhibition at 1 µM [3]: 101%
Compound: O=C(Cn1cncn1)NC[C@@H]1OCCNC[C@@H]1c1ccc(Cl)c(Cl)c1 (racemic) [Example 457, N-{[(6RS,7SR)-6-(3,4-dichlorophenyl)-1,4-oxazepan-7-yl]methyl}-2-(1H-1,2,4-triazol-1-yl)acetamide monohydrochloride]

inhibition at 1 µM [1]: 59%
inhibition at 1 µM [2]: 42%
inhibition at 1 µM [3]: 105%
Compound: OCCOC[C@H]1OCCNC[C@@H]1c1ccc(Cl)c(Cl)c1 (racemic) [Example 495, 2-{[(6RS,7RS)-6-(3,4-dichlorophenyl)-1,4-oxazepan-7-yl]methoxy}ethanol monohydrochloride]

inhibition at 1 µM [1]: 84%
inhibition at 1 µM [2]: 36%
inhibition at 1 µM [3]: 105%
Compound: CS(=O)(=O)NCCC[C@@H]1OCCNC[C@H]1c1ccc(Cl)c(Cl)c1 (racemic) [Example 520, N-{3-[(6RS,7SR)-6-(3,4-dichlorophenyl)-1,4-oxazepan-7-yl]propyl}methanesulfonamide monohydrochloride]

More lines, now with the values behind:

Compound: CS(=O)(=O)NC[C@@]1(O)CNCCO[C@@H]1c1ccc(Cl)c(Cl)c1 (racemic) [Example 162, N-{[(6RS,7SR)-7-(3,4-dichlorophenyl)-6-hydroxy-1,4-oxazepan-6-yl]methyl}methanesulfonamide monohydrochloride]
inhibition at 1 µM [1]: 65%
inhibition at 1 µM [2]: 40%
inhibition at 1 µM [3]: 105%

Compound: O=c1[nH]c(-c2cccnc2O[C@H]2CNCCOC2c2ccc(Cl)c(Cl)c2)no1 (mixture of isomers) [Example 236, 3-(2-{[(6RS,7SR)-7-(3,4-dichlorophenyl)-1,4-oxazepan-yl]oxy}pyridin-3-yl)-1,2,4-oxadiazol-5(4H)-one monohydrochloride]
inhibition at 1 µM [1]: 92%
inhibition at 1 µM [2]: 93%
inhibition at 1 µM [3]: 105%

Compound: CS(=O)(=O)C[C@@H]1CNCCOC1c1ccc(F)c(Cl)c1 (mixture of isomers) [Example 281, (6RS,7SR)-7-(3-chloro-4-fluorophenyl)-6-[(methylsulfonyl)methyl]-1,4-oxazepane monohydrochloride]
inhibition at 1 µM [1]: 95%
inhibition at 1 µM [2]: 22%
inhibition at 1 µM [3]: 95%

Compound: CS(=O)(=O)NC[C@H]1CNCCO[C@@H]1c1ccc(F)c(Cl)c1 (racemic) [Example 293, N-{[(6RS,7SR)-7-(3-chloro-4-fluorophenyl)-1,4-oxazepan-6-yl]methyl}methanesulfonamide monohydrochloride]
inhibition at 1 µM [1]: 65%
inhibition at 1 µM [2]: 31%
inhibition at 1 µM [3]: 95%

Compound: OC[C@H]1CNCCO[C@@H]1c1cc2ccccc2s1 (racemic) [Example 410, [(6RS,7SR)-7-(1-benzothiophen-2-yl)-1,4-oxazepan-6-yl]methanol monohydrochloride]
inhibition at 1 µM [1]: 91%
inhibition at 1 µM [2]: 32%
inhibition at 1 µM [3]: 103%

Compound: CCOC(=O)[C@H]1NCCOC[C@@H]1c1ccc(Cl)c(Cl)c1 (racemic) [Example 412, ethyl (5RS,6SR)-6-(3,4-dichlorophenyl)-1,4-oxazepane-5-carboxylate monohydrochloride]
inhibition at 1 µM [1]: 8%
inhibition at 1 µM [2]: 83%
inhibition at 1 µM [3]: 86%

Compound: O=S(=O)(NC[C@@]1(O)CNCCO[C@@H]1c1ccc(Cl)c(Cl)c1)C(F)F (racemic) [Example 521, N-{[(6RS,7SR)-7-(3,4-dichlorophenyl)-6-hydroxy-1,4-oxazepan-6-yl]methyl}-1,1-difluoromethanesulfonamide monohydrochloride]
inhibition at 1 µM [1]: 84%
inhibition at 1 µM [2]: 76%
inhibition at 1 µM [3]: 104%
